Key:
MAGL = MAGL (Mus musculus (Mouse), UniProt O35678); assay: In vitro competitive activity-based protein profiling, MAGL (mouse); format: biochemical; settings: for inhibition at 1 µM: read-out: MAGL % inh. 1 μM (mouse)
In short: (§1)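 Residual MAGL and FAAH activity came from in-gel fluorescence after competition between inhibitor (30 min preincubation, 37° C) and the activity-based probe FP-Rh or HT-01 (30 min, 37° C) in mouse or human tissue or cell proteomes.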

FAAH = FAAH (Mus musculus (Mouse), UniProt O08914); assay: In vitro competitive activity-based protein profiling, FAAH (mouse); format: biochemical; settings: for inhibition at 1 µM: read-out: FAAH % inh. 1 μM (mouse)
In short: as §1

MAGL, sequence (O35678 whole entry): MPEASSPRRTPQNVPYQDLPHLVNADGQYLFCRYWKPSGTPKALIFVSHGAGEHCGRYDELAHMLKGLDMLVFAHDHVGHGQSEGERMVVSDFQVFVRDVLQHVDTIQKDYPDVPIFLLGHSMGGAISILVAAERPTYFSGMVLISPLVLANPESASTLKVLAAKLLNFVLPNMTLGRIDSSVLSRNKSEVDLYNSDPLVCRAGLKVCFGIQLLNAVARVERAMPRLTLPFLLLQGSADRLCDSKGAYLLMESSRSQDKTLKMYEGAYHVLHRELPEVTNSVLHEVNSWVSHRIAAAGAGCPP
FAAH, sequence (O08914 whole entry): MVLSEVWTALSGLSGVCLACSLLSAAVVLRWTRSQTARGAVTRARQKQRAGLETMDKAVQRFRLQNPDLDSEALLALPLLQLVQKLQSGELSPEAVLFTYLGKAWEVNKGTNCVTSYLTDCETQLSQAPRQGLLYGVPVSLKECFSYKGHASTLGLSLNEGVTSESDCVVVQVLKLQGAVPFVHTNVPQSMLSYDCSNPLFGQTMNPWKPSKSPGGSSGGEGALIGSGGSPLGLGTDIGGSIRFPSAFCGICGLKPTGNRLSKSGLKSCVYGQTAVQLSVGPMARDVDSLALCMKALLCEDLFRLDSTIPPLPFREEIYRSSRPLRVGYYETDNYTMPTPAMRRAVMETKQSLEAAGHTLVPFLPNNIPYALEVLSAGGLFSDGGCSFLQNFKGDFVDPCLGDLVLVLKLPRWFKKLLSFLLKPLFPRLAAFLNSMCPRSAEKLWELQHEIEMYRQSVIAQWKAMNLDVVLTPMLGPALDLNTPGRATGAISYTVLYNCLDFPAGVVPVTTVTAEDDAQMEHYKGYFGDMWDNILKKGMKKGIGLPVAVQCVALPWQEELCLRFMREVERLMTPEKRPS

IC50 (MAGL)	inhibition at 1 µM (MAGL; 1 μM)	IC50 (FAAH)	inhibition at 1 µM (FAAH; 1 μM)	SMILES	MAGL % inh. 1 μM (mouse) (MAGL; 1 μM)	FAAH % inh. 1 μM (mouse) (FAAH; 1 μM)
0.1 to 1 µM	50 to 75%	≤ 0.1 µM	≥ 75%	CC(=O)N(C)c1cnn(C(=O)N2C[C@H]3C[C@@H](N(C)Cc4cccc(Cl)c4)C[C@H]3C2)c1 [Example 141, N-(1-(cis-5-((3-chlorobenzyl)(methyl)amino)octahydrocyclopenta[c]pyrrole-2-carbonyl)-1H-pyrazol-4-yl)-N-methylacetamide]	–	–
≤ 0.1 µM	≥ 75%	≤ 0.1 µM	≥ 75%	CC(=O)N(C)c1cnn(C(=O)N2CCN(Cc3cccc(Oc4ccccc4)c3)CC2)c1 [Example 202, N-methyl-N-(1-(4-(3-phenoxybenzyl)piperazine-1-carbonyl)-1H-pyrazol-4-yl)acetamide]	–	–
≤ 0.1 µM	≥ 75%	≤ 0.1 µM	≥ 75%	CC(=O)N(C)c1cnn(C(=O)N2CC3CN(Cc4cccc(Cl)c4Cl)CC3C2)c1 (stereo not drawn) [Example 107, N-(1-(5-(2,3-dichlorobenzyl)octahydropyrrolo[3,4-c]pyrrole-2-carbonyl)-1H-pyrazol-4-yl)-N-methylacetamide]	–	–
≤ 0.1 µM	≥ 75%	0.1 to 1 µM	≥ 75%	CC(=O)N(C)c1cnn(C(=O)N2CCC3(CC2)CN(Cc2ccc(C(F)(F)F)cc2)C3)c1 [Example 26, N-methyl-N-(1-(2-(4-(trifluoromethyl)benzyl)-2,7-diazaspiro[3.5]nonane-7-carbonyl)-1H-pyrazol-4-yl)acetamide]	–	–
≤ 0.1 µM	≥ 75%	≤ 0.1 µM	≥ 75%	CC(=O)N(C)c1cnn(C(=O)N2CC3CN(Cc4cc(Cl)cc(N5CCOCC5)c4)CC3C2)c1 (stereo not drawn) [Example 125, N-(1-(5-(3-chloro-5-morpholinobenzyl)octahydropyrrolo[3,4-c]pyrrole-2-carbonyl)-1H-pyrazol-4-yl)-N-methylacetamide]	–	–
–	≥ 75%	–	≥ 75%	CC(=O)N(C)c1cnn(C(=O)N2CC3CN(Cc4ccc(N5CCCC5)c(C(F)(F)F)c4)CC3C2)c1 (stereo not drawn) [Example 97, N-methyl-N-(1-(5-(4-(pyrrolidin-1-yl)-3-(trifluoromethyl)benzyl)octahydropyrrolo[3,4-c]pyrrole-2-carbonyl)-1H-pyrazol-4-yl)acetamide]	–	–
–	≥ 75%	–	25 to 50%	CC(=O)N(C)c1cnn(C(=O)N2C[C@H]3C[C@@H](N(Cc4ccc(Cl)cc4)C(C)=O)C[C@H]3C2)c1 [Example 171, N-(4-chlorobenzyl)-N-(cis-2-(4-(N-methylacetamido)-1H-pyrazole-1-carbonyl)octahydrocyclopenta[c]pyrrol-5-yl)acetamide]	–	–
≤ 0.1 µM	≥ 75%	≤ 0.1 µM	≥ 75%	CC(=O)N(C)c1cnn(C(=O)N2CC3CN(Cc4cc(C(F)(F)F)cc(C(F)(F)F)c4)CC3C2)c1 (stereo not drawn) [Example 116, N-(1-(5-(3,5-bis(trifluoromethyl)benzyl)octahydropyrrolo[3,4-c]pyrrole-2-carbonyl)-1H-pyrazol-4-yl)-N-methylacetamide]	–	–
–	≥ 75%	–	≥ 75%	CC(=O)N(C)c1cnn(C(=O)N2CC3CN(Cc4ccc(-c5ncccn5)cc4Cl)CC3C2)c1 (stereo not drawn) [Example 261, N-(1-(5-(2-chloro-4-(pyrimidin-2-yl)benzyl)octahydropyrrolo[3,4-c]pyrrole-2-carbonyl)-1H-pyrazol-4-yl)-N-methylacetamide]	–	–
1 to 10 µM	50 to 75%	≤ 0.1 µM	≥ 75%	CC(=O)N(C)c1cnn(C(=O)N2CC3(CCN(Cc4cccc(Oc5ccccc5)c4)CC3)C2)c1 [Example 229, N-methyl-N-(1-(7-(3-phenoxybenzyl)-2,7-diazaspiro[3.5]nonane-2-carbonyl)-1H-pyrazol-4-yl)acetamide]	–	–
–	50 to 75%	–	50 to 75%	COc1cccc(CN2CC3(CCN(C(=O)n4cc(N(C)C(C)=O)cn4)CC3)C2)c1 [Example 37, N-(1-(2-(3-methoxybenzyl)-2,7-diazaspiro[3.5]nonane-7-carbonyl)-1H-pyrazol-4-yl)-N-methylacetamide]	–	–
0.1 to 1 µM	≥ 75%	≤ 0.1 µM	≥ 75%	CC(=O)N(C)c1cnn(C(=O)N2CC3CN(Cc4cc(F)c(F)cc4F)CC3C2)c1 (stereo not drawn) [Example 246, N-methyl-N-(1-(5-(2,4,5-trifluorobenzyl)octahydropyrrolo[3,4-c]pyrrole-2-carbonyl)-1H-pyrazol-4-yl)acetamide]	–	–
≤ 0.1 µM	≥ 75%	≤ 0.1 µM	≥ 75%	CC(=O)N(C)c1cnn(C(=O)N2CCC3(CC2)CN(Cc2cccc(Cl)c2)C3)c1 [Example 34, N-(1-(2-(3-chlorobenzyl)-2,7-diazaspiro[3.5]nonane-7-carbonyl)-1H-pyrazol-4-yl)-N-methylacetamide]	–	–
0.1 to 1 µM	≥ 75%	≤ 0.1 µM	≥ 75%	CC(=O)N(C)c1cnn(C(=O)N2CCC3(CCN(Cc4ccc(N5CCOCC5)cc4Cl)C3)C2)c1 (stereo not drawn) [Example 4, N-(1-(7-(2-chloro-4-morpholinobenzyl)-2,7-diazaspiro[4.4]nonane-2-carbonyl)-1H-pyrazol-4-yl)-N-methylacetamide]	–	–
–	50 to 75%	–	≥ 75%	CS(=O)(=O)Nc1cnn(C(=O)N2CCN(Cc3ccc(-c4nccs4)cc3C(F)(F)F)CC2)c1 [Example 291, N-(1-(4-(4-(thiazol-2-yl)-2-(trifluoromethyl)benzyl)piperazine-1-carbonyl)-1H-pyrazol-4-yl)methanesulfonamide]	–	–
≤ 0.1 µM	≥ 75%	≤ 0.1 µM	≥ 75%	CC(=O)N(C)c1cnn(C(=O)N2CC3CN(Cc4ccc(-c5ccccc5)cc4C)CC3C2)c1 (stereo not drawn) [Example 223, N-methyl-N-(1-(5-((3-methyl-[1,1′-biphenyl]-4-yl)methyl)octahydropyrrolo[3,4-c]pyrrole-2-carbonyl)-1H-pyrazol-4-yl)acetamide]	–	–
–	50 to 75%	–	25 to 50%	CC(=O)N(C)c1cnn(C(=O)N2CC3(CCN(Cc4ccc(N5CCCC5)cc4)CC3)C2)c1 [Example 19, N-methyl-N-(1-(7-(4-(pyrrolidin-1-yl)benzyl)-2,7-diazaspiro[3.5]nonane-2-carbonyl)-1H-pyrazol-4-yl)acetamide]	–	–
–	≥ 75%	–	≥ 75%	CC(=O)N(C)c1cnn(C(=O)N2CC3CN(Cc4ccc(Oc5nc6ccccc6s5)cc4C(F)(F)F)CC3C2)c1 (stereo not drawn) [Example 254, N-(1-(5-(4-(benzo[d]thiazol-2-yloxy)-2-(trifluoromethyl)benzyl)octahydropyrrolo [3,4-c]pyrrole-2-carbonyl)-1H-pyrazol-4-yl)-N-methylacetamide]	–	–
–	≥ 75%	–	≥ 75%	CC(=O)N(C)c1cnn(C(=O)N2C[C@H]3C[C@@H](NCc4ccc(Cl)cc4)C[C@H]3C2)c1 [Example 135, N-(1-(cis-5-(4-chlorobenzylamino)octahydrocyclopenta[c]pyrrole-2-carbonyl)-1H-pyrazol-4-yl)-N-methylacetamide]	–	–
0.1 to 1 µM	≥ 75%	0.1 to 1 µM	≥ 75%	CC(=O)N(C)c1cnn(C(=O)N2CCN(Cc3cccc(Cl)c3)CC2)c1 [Example 193, N-(1-(4-(3-chlorobenzyl)piperazine-1-carbonyl)-1H-pyrazol-4-yl)-N-methylacetamide]	–	–
–	≥ 75%	–	≥ 75%	CC(=O)N(C)c1cnn(C(=O)N2C[C@H]3C[C@H](N(C)Cc4cc(N5CCCC5)ccc4C(F)(F)F)C[C@H]3C2)c1 [Example 142, N-methyl-N-(1-(trans-5-(methyl(5-(pyrrolidin-1-yl)-2-(trifluoromethyl)benzyl)amino)octahydrocyclopenta[c]pyrrole-2-carbonyl)-1H-pyrazol-4-yl)acetamide]	–	–
–	≥ 75%	–	≥ 75%	CC(=O)N(C)c1cnn(C(=O)N2CCC3(CCN(Cc4ccc(N5CCCC5)c(C(F)(F)F)c4)C3)C2)c1 (stereo not drawn) [Example 69, N-methyl-N-(1-(7-(4-(pyrrolidin-1-yl)-3-(trifluoromethyl)benzyl)-2,7-diazaspiro[4.4]nonane-2-carbonyl)-1H-pyrazol-4-yl)acetamide]	–	–
0.1 to 1 µM	≥ 75%	0.1 to 1 µM	≥ 75%	CC(=O)N(C)c1cnn(C(=O)N2CCC3(CCN(Cc4cccc(Cl)c4)C3)CC2)c1 [Example 187, N-(1-(2-(3-chlorobenzyl)-2,8-diazaspiro[4.5]decane-8-carbonyl)-1H-pyrazol-4-yl)-N-methylacetamide]	–	–
≤ 0.1 µM	≥ 75%	≤ 0.1 µM	≥ 75%	CC(=O)N(C)c1cnn(C(=O)N2CC3CN(Cc4cc(Cl)ccc4Cl)CC3C2)c1 (stereo not drawn) [Example 109, N-(1-(5-(2,5-dichlorobenzyl)octahydropyrrolo[3,4-c]pyrrole-2-carbonyl)-1H-pyrazol-4-yl)-N-methylacetamide]	–	–
≤ 0.1 µM	≥ 75%	≤ 0.1 µM	≥ 75%	CC(=O)N(C)c1cnn(C(=O)N2CC3CN(Cc4cc(Cl)cc(Cl)c4)CC3C2)c1 (stereo not drawn) [Example 105, N-(1-(5-(3,5-dichlorobenzyl)octahydropyrrolo[3,4-c]pyrrole-2-carbonyl)-1H-pyrazol-4-yl)-N-methylacetamide]	–	–

SMILES	IC50 (MAGL)	inhibition at 1 µM (MAGL; 1 μM)	IC50 (FAAH)	inhibition at 1 µM (FAAH; 1 μM)	MAGL % inh. 1 μM (mouse) (MAGL; 1 μM)	FAAH % inh. 1 μM (mouse) (FAAH; 1 μM)
CC(=O)Nc1cnn(C(=O)N2CCN(Cc3cc(N4CCCC4)cc(C(F)(F)F)c3)CC2)c1 [Example 227]	0.1 to 1 µM	–	0.1 to 1 µM	–	A (A = % inhibition greater than or equal to 75%)	B (B = % inhibition greater than or equal to 50% and less than 75%)
